Measured values published in patent US20260183275A1, “SUBSTITUTED QUINOLONE COMPOUNDS USEFUL AS INHIBITORS OF TLR9” (Bristol-Myers Squibb Company, priority 2022, published 2026).

What was measured:
Type in all cases: cell-based
human TLR9 = target: T1, human TLR9 (Homo sapiens, UniProt Q9NR96); experiment: TLR9 inhibition reporter assay (HEK-Blue cells, SEAP reporter); settings: HEK-Blue cells overexpressing human TLR9; stimulated with ODN2006 5 nM; SEAP read after 22 hour; dose range 0.05 nM-50 μM
T1 construct: host or cells: HEK-Blue cells
T1 sequence (Q9NR96 26-1032): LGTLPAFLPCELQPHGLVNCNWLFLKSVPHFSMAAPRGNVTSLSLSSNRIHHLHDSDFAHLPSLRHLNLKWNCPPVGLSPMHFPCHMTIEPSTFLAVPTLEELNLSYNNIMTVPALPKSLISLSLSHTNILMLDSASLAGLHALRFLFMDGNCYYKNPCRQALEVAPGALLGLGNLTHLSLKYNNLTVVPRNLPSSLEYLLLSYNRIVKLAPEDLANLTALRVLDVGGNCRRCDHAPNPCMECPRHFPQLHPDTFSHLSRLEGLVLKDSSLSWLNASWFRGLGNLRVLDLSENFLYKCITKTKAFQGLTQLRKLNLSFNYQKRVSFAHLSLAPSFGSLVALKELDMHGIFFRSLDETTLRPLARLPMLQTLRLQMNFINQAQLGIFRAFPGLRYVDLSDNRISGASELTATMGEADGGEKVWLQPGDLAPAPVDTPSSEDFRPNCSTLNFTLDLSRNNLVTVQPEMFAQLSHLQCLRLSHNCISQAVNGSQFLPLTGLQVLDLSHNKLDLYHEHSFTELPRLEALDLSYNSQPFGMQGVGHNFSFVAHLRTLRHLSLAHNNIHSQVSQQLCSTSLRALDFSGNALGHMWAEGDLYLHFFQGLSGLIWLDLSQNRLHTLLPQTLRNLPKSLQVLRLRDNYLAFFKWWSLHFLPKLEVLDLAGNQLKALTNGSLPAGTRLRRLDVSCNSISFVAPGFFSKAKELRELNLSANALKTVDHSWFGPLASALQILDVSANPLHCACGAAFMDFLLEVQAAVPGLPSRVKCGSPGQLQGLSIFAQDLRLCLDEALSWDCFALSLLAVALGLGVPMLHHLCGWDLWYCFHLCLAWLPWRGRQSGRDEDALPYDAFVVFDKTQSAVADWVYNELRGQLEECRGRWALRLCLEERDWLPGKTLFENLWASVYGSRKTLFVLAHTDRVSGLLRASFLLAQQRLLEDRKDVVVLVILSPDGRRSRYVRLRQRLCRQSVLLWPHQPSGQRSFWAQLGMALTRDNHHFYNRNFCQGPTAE
How it was run: (§1)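 HEK-Blue cells with NF-κB/AP-1-driven SEAP pre-treated 30 min with compounds (0.05 nM-50 μM), then stimulated with gardiquimod 7.5 μM (TLR7), R848 15.9 μM (TLR8) or ODN2006 5 nM (TLR9). SEAP read after 22 h at 37° C; % inhibition relative to agonist+DMSO and reference-inhibitor wells.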

human TLR7 = target: T2, human TLR7 (Homo sapiens, UniProt Q9NYK1); experiment: TLR7 inhibition reporter assay (HEK-Blue cells, SEAP reporter); settings: HEK-Blue cells overexpressing human TLR7; stimulated with gardiquimod 7.5 μM; SEAP read after 22 hour; dose range 0.05 nM-50 μM
T2 construct: host or cells: HEK-Blue cells
T2 sequence (Q9NYK1 27-1049): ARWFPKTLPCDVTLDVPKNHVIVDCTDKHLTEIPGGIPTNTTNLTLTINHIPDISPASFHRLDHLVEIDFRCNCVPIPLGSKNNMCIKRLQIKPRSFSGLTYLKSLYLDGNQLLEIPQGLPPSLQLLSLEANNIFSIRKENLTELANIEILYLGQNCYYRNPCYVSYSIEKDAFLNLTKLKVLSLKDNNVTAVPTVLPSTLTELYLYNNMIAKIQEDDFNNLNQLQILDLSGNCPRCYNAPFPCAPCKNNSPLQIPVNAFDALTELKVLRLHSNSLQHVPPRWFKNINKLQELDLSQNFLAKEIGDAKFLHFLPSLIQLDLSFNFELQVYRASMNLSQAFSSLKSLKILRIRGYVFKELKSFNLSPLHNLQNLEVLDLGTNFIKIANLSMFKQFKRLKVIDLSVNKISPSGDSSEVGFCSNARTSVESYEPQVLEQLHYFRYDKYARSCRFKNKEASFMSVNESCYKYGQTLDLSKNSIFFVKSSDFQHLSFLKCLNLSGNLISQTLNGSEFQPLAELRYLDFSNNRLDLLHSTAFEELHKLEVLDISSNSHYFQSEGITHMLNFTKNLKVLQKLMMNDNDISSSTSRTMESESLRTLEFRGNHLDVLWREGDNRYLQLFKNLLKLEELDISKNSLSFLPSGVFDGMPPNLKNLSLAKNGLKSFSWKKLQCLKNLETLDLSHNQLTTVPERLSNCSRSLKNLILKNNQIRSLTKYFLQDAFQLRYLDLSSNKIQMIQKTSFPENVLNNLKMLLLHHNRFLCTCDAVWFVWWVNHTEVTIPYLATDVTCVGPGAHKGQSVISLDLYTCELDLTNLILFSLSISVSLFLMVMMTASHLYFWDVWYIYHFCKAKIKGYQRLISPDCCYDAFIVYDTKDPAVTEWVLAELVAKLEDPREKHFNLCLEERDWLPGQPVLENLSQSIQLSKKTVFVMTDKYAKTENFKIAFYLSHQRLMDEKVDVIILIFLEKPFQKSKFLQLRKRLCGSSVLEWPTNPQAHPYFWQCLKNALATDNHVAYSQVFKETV
How it was run: as §1

human TLR8 = target: T3, human TLR8 (Homo sapiens, UniProt Q9NR97); experiment: TLR8 inhibition reporter assay (HEK-Blue cells, SEAP reporter); settings: HEK-Blue cells overexpressing human TLR8; stimulated with R848 15.9 μM; SEAP read after 22 hour; dose range 0.05 nM-50 μM
T3 construct: host or cells: HEK-Blue cells
T3 sequence (Q9NR97 27-1041): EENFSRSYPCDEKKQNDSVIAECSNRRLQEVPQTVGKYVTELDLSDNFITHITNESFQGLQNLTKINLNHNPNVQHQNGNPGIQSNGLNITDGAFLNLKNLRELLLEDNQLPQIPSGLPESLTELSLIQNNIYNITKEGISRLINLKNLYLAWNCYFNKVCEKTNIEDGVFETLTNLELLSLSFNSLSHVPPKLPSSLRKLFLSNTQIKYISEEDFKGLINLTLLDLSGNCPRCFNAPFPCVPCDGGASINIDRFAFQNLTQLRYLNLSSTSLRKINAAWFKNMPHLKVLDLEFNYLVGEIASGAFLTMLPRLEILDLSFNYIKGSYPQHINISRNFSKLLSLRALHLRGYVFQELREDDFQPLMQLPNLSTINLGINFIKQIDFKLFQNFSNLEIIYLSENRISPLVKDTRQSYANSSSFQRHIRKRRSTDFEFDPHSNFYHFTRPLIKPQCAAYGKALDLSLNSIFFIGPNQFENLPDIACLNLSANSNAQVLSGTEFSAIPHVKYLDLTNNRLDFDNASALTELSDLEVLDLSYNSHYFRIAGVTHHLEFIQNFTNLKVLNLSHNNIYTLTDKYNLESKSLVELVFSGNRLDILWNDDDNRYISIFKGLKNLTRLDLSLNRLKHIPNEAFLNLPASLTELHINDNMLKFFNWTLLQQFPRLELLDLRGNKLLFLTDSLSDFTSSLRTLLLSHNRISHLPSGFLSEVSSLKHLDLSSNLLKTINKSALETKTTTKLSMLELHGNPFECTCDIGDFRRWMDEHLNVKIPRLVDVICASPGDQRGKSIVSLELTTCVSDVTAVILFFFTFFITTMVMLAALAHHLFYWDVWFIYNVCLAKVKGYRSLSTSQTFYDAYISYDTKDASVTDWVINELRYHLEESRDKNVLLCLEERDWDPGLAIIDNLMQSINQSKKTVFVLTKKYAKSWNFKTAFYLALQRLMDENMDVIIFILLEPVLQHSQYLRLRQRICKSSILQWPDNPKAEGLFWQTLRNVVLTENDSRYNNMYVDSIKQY
How it was run: as §1

IC50 (human TLR9) [µM] | IC50 (human TLR7) [µM] | IC50 (human TLR8) [µM] | SMILES
0.154 | 3.58 | 21.7 | CC(C)N1CCC(c2ccc(-c3ccc4c(c3)cc(-c3ccc(S(C)(=O)=O)cc3)c(=O)n4CCO)cc2)CC1 [Example 72, 1-(2-hydroxyethyl)-3-(4-methanesulfonylphenyl)-6-{4-[1-(propan-2-yl)piperidin-4-yl]phenyl}-1,2-dihydroquinolin-2-one]
0.219 | 1.48 | 0.763 | CC(C)N1CCC(c2ccc(-c3ccc4c(c3)cc(-c3ccccc3)c(=O)n4C)cc2)CC1 [Example 73, 1-methyl-3-phenyl-6-{4-[1-(propan-2-yl)piperidin-4-yl]phenyl}-1,2-dihydroquinolin-2-one]
0.237 | 12 | 29.6 | CC(C)N1CCC(c2ccc(-c3ccc4c(c3)cc(-c3ccc(N(C)S(C)(=O)=O)cc3)c(=O)n4C)cc2)CC1 [Example 74, N-methyl-N-[4-(1-methyl-2-oxo-6-{4-[1-(propan-2-yl)piperidin-4-yl]phenyl}-1,2-dihydroquinolin-3-yl)phenyl]methanesulfonamide]
0.253 | 6.63 | ≥ 50 | CC(C)N1CCC(c2ccc(Nc3ccc4c(c3)cc(-c3ccc(S(C)(=O)=O)cc3)c(=O)n4C)cc2)CC1 [Example 75, 3-(4-methanesulfonylphenyl)-1-methyl-6-({4-[1-(propan-2-yl)piperidin-4-yl]phenyl}amino)-1,2-dihydroquinolin-2-one]
0.261 | 2.03 | 9.85 | CN1CCC(c2ccc(-c3ccc4[nH]c(=O)c(-c5ccc(S(C)(=O)=O)cc5)cc4c3)cc2)CC1 [Example 76, 3-(4-methanesulfonylphenyl)-6-[4-(1-methylpiperidin-4-yl)phenyl]-1,2-dihydroquinolin-2-one]
0.267 | 10.2 | 0.361 | CCc1c(-c2ccc(S(C)(=O)=O)cc2)c(=O)n(C)c2ccc(-c3ccc(N4CCN(C(C)C)CC4)cc3)cc12 [Example 77, 4-ethyl-3-(4-methanesulfonylphenyl)-1-methyl-6-{4-[4-(propan-2-yl)piperazin-1-yl]phenyl}-1,2-dihydroquinolin-2-one]
0.286 | 2.12 | 2.26 | CN1CCC(c2ccc(-c3ccc4c(c3)cc(-c3ccc(S(C)(=O)=O)cc3)c(=O)n4C)cc2)CC1 [Example 78, 3-(4-methanesulfonylphenyl)-1-methyl-6-[4-(1-methylpiperidin-4-yl)phenyl]-1,2-dihydroquinolin-2-one]
0.287 | 5.33 | 25.8 | CCn1c(=O)c(-c2ccc(S(C)(=O)=O)cc2)cc2cc(-c3ccc(C4CCN(C(C)C)CC4)cc3)ccc21 [Example 79, 1-ethyl-3-(4-methanesulfonylphenyl)-6-{4-[1-(propan-2-yl)piperidin-4-yl]phenyl}-1,2-dihydroquinolin-2-one]
0.298 | 8.38 | 15.1 | CCCn1c(=O)c(-c2ccc(S(C)(=O)=O)cc2)cc2cc(-c3ccc(C4CCN(C(C)C)CC4)cc3)ccc21 [Example 80, 3-(4-methanesulfonylphenyl)-6-{4-[1-(propan-2-yl)piperidin-4-yl]phenyl}-1-propyl-1,2-dihydroquinolin-2-one]
0.309 | 0.333 | 0.796 | CC(=O)Nc1ccc(-c2cc3cc(-c4ccc(C5CCN(C(C)C)CC5)cc4)ccc3[nH]c2=O)cc1 [Example 81, N-[4-(2-oxo-6-{4-[1-(propan-2-yl)piperidin-4-yl]phenyl}-1,2-dihydroquinolin-3-yl)phenyl]acetamide]
0.312 | 5.5 | 19.1 | CC(C)N1CCC(c2ccc(-c3ccc4c(c3)cc(-c3ccc(S(C)(=O)=O)cc3)c(=O)n4CCCO)cc2)CC1 [Example 82, 1-(3-hydroxypropyl)-3-(4-methanesulfonylphenyl)-6-{4-[1-(propan-2-yl)piperidin-4-yl]phenyl}-1,2-dihydroquinolin-2-one]
0.354 | 0.369 | ≥ 50 | CC(C)N1CCC(c2ccc(-c3ccc4[nH]c(=O)c(-c5ccc(NS(C)(=O)=O)cc5)cc4c3)cc2)CC1 [Example 83, N-[4-(2-oxo-6-{4-[1-(propan-2-yl)piperidin-4-yl]phenyl}-1,2-dihydroquinolin-3-yl)phenyl]methanesulfonamide]
0.389 | 2.32 | 0.672 | CCc1c(-c2ccc(S(C)(=O)=O)cc2)c(=O)[nH]c2ccc(-c3ccc(N4CCN(C(C)C)CC4)cc3)cc12 [Example 84, 4-ethyl-3-(4-methanesulfonylphenyl)-6-{4-[4-(propan-2-yl)piperazin-1-yl]phenyl}-1,2-dihydroquinolin-2-one]
